Calls of active or inactive are those of the source. The calls are words filed in the database; no cut-off is given here.

This is an account of results in ChEMBL document CHEMBL5385950, “Terpenoids from the Soft Coral Stereonephthya bellissima” (J Nat Prod, 2024).

The species entered for the test is Danio rerio. Kind of test: Pro-angiogenesis activity against PTK787 induced vascular injury in Tg(vegfr2: EGFP) zebrafish at 20 uM measured after 24 hrs by fluorescence imaging analysis. The format is functional, organism-based.

In the case of `CC(=O)C1=CCC[C@]23O[C@H]2CC[C@](C)(O)[C@@]13C`, the outcome was Active.
